# In patent US9758538B2, “Pyrimidine derivatives” (PFIZER INC., priority 2015, dated 2017):
# Molecular target: truncated PI3Kα (p110α/iSH2 p85α), PI3KA_Act (Homo sapiens (Human), UniProt P42336)
# Assay: PI3Kα biochemical kinase assay, fluorescence polarization format (PI3KA_Act)
# Conditions: 0.5 nM p110α/iSH2 p85, 1 mM ATP, 30 μM PIP2, 15-min preincubation; Morrison equation fit; read-out: PI3KA_Act Ki
# Method: Enzyme Production for Biochemical Assay: p110α-iSH2 p85α Complex (Full Length p110α and p85α iSH2)(“PI3KA Act”)
# Gene encoding p110α subunit was subcloned into polyhedrine promoter while gene encoding p85α niSH2 domains was subcloned into p10 promoter. […] Recombinant baculovirus was generated using Bac-to-Bac protocol (Life Technologies, Carlsbad, Calif.). Large scale expression was conducted in Sf21 (Life Technologies, Carlsbad, Calif.) cells at a multiplicity of infection (“MOI”)=1 for 48 hours. Cells were lyzed in 50 mM Tris pH 8.0, 250 mM NaCl, 5% glycerol, 0.25 mM TCEP, and 20 mM imidazole. The p110α-niSH2 p85α complex was purified from clarified supernatant using Immobilized Metalo Affinity Chromatography (“IMAC”). The protein was eluted from the column using 50 mM Tris pH 8.0, 200 mM NaCl, 0.25 mM TCEP, and 200 mM imidazole. Following elution p110α-niSH2 p85α complex was dialyzed against 4 liters of 50 mM Tris pH 8.0, 200 mM NaCl, 0.25 mM TCEP, and 40 mM imidazole in the presence of PreScission Protease (1:70 molar ratio of Protease to Protein) and TEV protease (1:40 molar ratio protease to protein) for 16 hours at 4° C. The protein was further purified using reverse IMAC to remove cleaved histidine tag and contaminants captured during initial IMAC purification. The mixture of p110α-iSH2 p85α complex and cleaved nSH2 was recovered in reverse IMAC 40 mM imidazole flow through and 60 mM imidazole wash fractions. Those fractions were pulled together and loaded on Superdex 200 26/60 SEC column equilibrated in 25 mM Tris, pH 8.0, 100 mM NaCl, 2% glycerol, and 2 mM TCEP.
# The enzymatic reactions were conducted in 50 μL volumes in 96-well plates. […] The reactions were incubated for 30 min at room temperature, stopped with EDTA pH 8 (10 mM final concentration). […] The plate was shaken for 30 minutes and fluorescence polarization values were measured on an LJL Analyst HT plate reader (Molecular Devices, Sunnyvale, Calif.).
# Chain of truncated PI3Kα (p110α/iSH2 p85α), PI3KA_Act (P42336 whole entry, the tested form may be a part): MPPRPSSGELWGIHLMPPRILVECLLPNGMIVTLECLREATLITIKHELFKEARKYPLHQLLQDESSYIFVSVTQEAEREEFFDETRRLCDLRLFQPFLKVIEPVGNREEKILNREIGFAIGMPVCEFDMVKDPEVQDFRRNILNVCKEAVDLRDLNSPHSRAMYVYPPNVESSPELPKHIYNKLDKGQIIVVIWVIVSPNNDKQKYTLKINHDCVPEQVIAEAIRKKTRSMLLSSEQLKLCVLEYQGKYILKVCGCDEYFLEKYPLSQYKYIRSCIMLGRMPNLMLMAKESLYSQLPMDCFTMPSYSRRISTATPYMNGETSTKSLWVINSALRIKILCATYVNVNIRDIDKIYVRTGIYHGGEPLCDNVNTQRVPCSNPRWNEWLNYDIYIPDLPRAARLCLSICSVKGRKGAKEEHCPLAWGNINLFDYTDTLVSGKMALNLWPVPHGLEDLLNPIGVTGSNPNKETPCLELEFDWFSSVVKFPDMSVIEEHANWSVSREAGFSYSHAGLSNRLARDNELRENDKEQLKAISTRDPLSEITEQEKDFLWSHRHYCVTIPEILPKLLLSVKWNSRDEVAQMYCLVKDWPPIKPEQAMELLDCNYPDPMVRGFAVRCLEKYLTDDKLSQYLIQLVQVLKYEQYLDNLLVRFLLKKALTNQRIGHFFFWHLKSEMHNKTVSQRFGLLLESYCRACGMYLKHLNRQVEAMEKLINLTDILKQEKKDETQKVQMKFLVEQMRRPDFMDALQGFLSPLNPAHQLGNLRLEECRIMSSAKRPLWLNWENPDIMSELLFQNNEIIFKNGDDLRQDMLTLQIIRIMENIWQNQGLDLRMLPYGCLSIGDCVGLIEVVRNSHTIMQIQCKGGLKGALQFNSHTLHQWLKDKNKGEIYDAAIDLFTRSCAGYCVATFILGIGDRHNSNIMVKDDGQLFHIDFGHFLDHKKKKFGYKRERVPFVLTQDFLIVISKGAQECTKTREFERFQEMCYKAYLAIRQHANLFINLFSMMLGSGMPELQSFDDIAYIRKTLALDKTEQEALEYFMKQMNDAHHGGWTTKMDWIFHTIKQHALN
row,Ki [pM],Structure (SMILES)
1,30,"COC(=O)N1CCCC(CO)(Nc2cc(-c3cnc(N)nc3)nc(N3CCOCC3)n2)C1 (racemic) [Example 4, methyl 3-{[2′-amino-2-(morpholin-4-yl)-4,5′-bipyrimidin-6-yl]amino}-3-(hydroxymethyl)piperidine-1-carboxylate]"
2,58,"CC(C)(C)OC(=O)N1CCC(CO)(Oc2cc(-c3cnc(N)nc3)nc(N3CCOCC3)n2)C1 (racemic) [Example 7, tert-butyl 3-{[2′-amino-2-(morpholin-4-yl)-4,5′-bipyrimidin-6-yl]oxy}-3-(hydroxymethyl)pyrrolidine-1-carboxylate]"
3,< 18,"CC(C)(C)OC(=O)N1CCC(CO)(Oc2cc(-c3cnc(N)nc3)nc(N3CCOCC3)n2)C1 (single isomer, unassigned) [Example 8, tert-butyl 3-{[2′-amino-2-(morpholin-4-yl)-4,5′-bipyrimidin-6-yl]oxy}-3-(hydroxymethyl)pyrrolidine-1-carboxylate]"
4,492,"CC(C)(C)OC(=O)N1CCC(CO)(Oc2cc(-c3cnc(N)nc3)nc(N3CCOCC3)n2)C1 (single isomer, unassigned) [Example 9, tert-butyl 3-{[2′-amino-2-(morpholin-4-yl)-4,5′-bipyrimidin-6-yl]oxy}-3-(hydroxymethyl)pyrrolidine-1-carboxylate]"
5,< 18,"CN(c1cc(-c2cnc(N)nc2)nc(N2CCOCC2)n1)C1(CO)CCN(C(=O)OC(C)(C)C)C1 (single isomer, unassigned) [Example 26, tert-butyl 3-{[2′-amino-2-(morpholin-4-yl)-4,5′-bipyrimidin-6-yl](methyl)amino}-3-(hydroxymethyl)pyrrolidine-1-carboxylate]"
6,717,"CN(c1cc(-c2cnc(N)nc2)nc(N2CCOCC2)n1)C1(CO)CCN(C(=O)OC(C)(C)C)C1 (single isomer, unassigned) [Example 27, tert-butyl 3-{[2′-amino-2-(morpholin-4-yl)-4,5′-bipyrimidin-6-yl](methyl)amino}-3-(hydroxymethyl)pyrrolidine-1-carboxylate]"
7,627,"Nc1ncc(-c2nc(N3CCOCC3)nc(N[C@]3(CO)CCCN(C(=O)C4(F)CC4)C3)c2F)cn1 (single isomer, unassigned) [Example 158]"
8,2610,"Nc1ncc(-c2nc(N3CCOCC3)nc(N[C@@]3(COP(=O)(O)O)CCN(C(=O)OCC(F)F)C3)c2F)cn1 [Example 3, 2,2-difluoroethyl (3S)-3-{[2′-amino-5-fluoro-2-(morpholin-4-yl)-4,5′-bipyrimidin-6-yl]amino}-3-[(phosphonooxy)methyl]pyrrolidine-1-carboxylate]"
9,< 18,"COC(=O)N1CCC[C@](CO)(Nc2cc(-c3cnc(N)nc3)nc(N3CCOCC3)n2)C1 [Example 5, methyl (3S)-3-{[2′-amino-2-(morpholin-4-yl)-4,5′-bipyrimidin-6-yl]amino}-3-(hydroxymethyl)piperidine-1-carboxylate]"
10,881,"COC(=O)N1CCC[C@@](CO)(Nc2cc(-c3cnc(N)nc3)nc(N3CCOCC3)n2)C1 [Example 6, methyl (3R)-3-{[2′-amino-2-(morpholin-4-yl)-4,5′-bipyrimidin-6-yl]amino}-3-(hydroxymethyl)piperidine-1-carboxylate]"
11,1620,"CC(O)[C@]1(Nc2cc(-c3cnc(N)nc3)nc(N3CCOCC3)n2)CCN(C(=O)OC(C)(C)C)C1 (stereo partly drawn) [Example 10, tert-butyl (3S)-3-{[2′-amino-2-(morpholin-4-yl)-4,5′-bipyrimidin-6-yl]amino}-3-(1-hydroxyethyl)pyrrolidine-1-carboxylate]"
12,103,"COC(=O)N1CC[C@](CO)(Nc2nc(-c3cnc(N)nc3)nc(N3CCOCC3)n2)C1 [Example 11, methyl (3S)-3-{[4-(2-aminopyrimidin-5-yl)-6-(morpholin-4-yl)-1,3,5-triazin-2-yl]amino}-3-(hydroxymethyl)pyrrolidine-1-carboxylate]"
